Legend:
mice embryos = assay: in vitro embryo development in Quinn's Advantage cleavage media; format: cell-based
Procedure: CBA male mice were bred with BL C57 female mice. The mice were kept on a 12 hours photoperiod schedule with unlimited water and food supply. About 6 to 8 weeks after receiving offspring, each female mouse was injected IP with 5IU of pregnant mare serum gonadotropin (PMSG).
After 48 hours each female mouse was injected IP with 5IU human chorionic gonadotropin (hCG). Male mice proven to be fertile were then put together with the superovulated females. The next morning the female mice were examined for the presence of copulatory plugs. Females that had copulatory plugs were euthanized after 24 hours (approximately 36 hours post-coitus) and embryos at 2 cell stage were retrieved from the oviducts as following: the oviducts were dissected in Quinn's Advantage cleavage media (SAGE, Origio, Denmark) and the embryos were transferred to 20 μL drops with Quinn's Advantage cleavage media (SAGE, Origio, Denmark) overlaid with mineral oil and cultured at 37.0° C. under 5% CO2 and atmospheric oxygen. The collected embryos continued to grow, i.e. in-vitro culture (IVC), until blastocyst/hatching stage. To test the effect of amorphous calcium carbonate, the Quinn's Advantage cleavage media (“cleavage media” hereinafter) was supplemented with different additives, i.e. amorphous calcium carbonate stabilized by polyphosphate (ACC-PP), crystalline calcium carbonate (CCC), polyphosphate (PP), phosphoserine (PS) or sodium carbonate ([…]). All supplements were added as a freshly prepared suspension; the preparation of the ACC supplements were performed under aseptic conditions. Untreated cleavage media (without addition of any additive) was used as a control (identified as Cont Q). The embryos were evaluated every day by microscope observation for a detection of the following stages: 2 cells, compactions stage, blastocysts formation and hatching stage. The fraction (in percent) of the embryos reached each stage was calculated (the number of 2 cells embryos was set as 100%).

mdx cell line = assay: myotube formation, CK activity and contraction in mdx cell line; format: cell-based, mice; conditions: final Ca2+ 2 mM in Fusion Medium
Procedure: Cells from the Mdx cell line were seeded in a Gelatin coated 12 wells culture plate, 3×10^4 cells/well containing 1 mL of Proliferation Medium. Two days later (˜66% confluence), the medium was changed to Fusion Medium which was changed twice a week. The various calcium preparations were separately added to the Fusion Medium according to the treatment described in Table 3. Cultures were enriched with the various calcium preparations, at Ca^2+ concentration of 1 mM. Since the medium already contained 1 mM of calcium ions, then the final concentration of Ca2+ was of 2 mM.
The effects of the tested calcium preparations on cell proliferation, fusion to form myotubes and muscle contraction were monitored by daily phase contrast microscopic observation. At predetermined days, cultures were fixed in methanol for 20 minutes and then stained with Giemsa in order to evaluate the number of myotubes formed with time in cultures.
At predetermined days, cells were collected from culture wells (using a rubber policeman) and kept in 1 mL PBS (without Ca^2+) at −70° C. until analyzed. For CK measurement cell samples were thawed and physically lysed using a sonicator, to release the CK from muscle myotubes. CK concentration was determined using Creatine Kinase Activity Assay Kit (CK-NAC REAGENT SET, CURTISS, CHEM-INDEX INC, Hialeah, FL, USA).

[1] = Example 9 Test A, 1.7 mM in cleavage media
[2] = Example 9 Test B, 1.7 mM CaCl2 or ACC-PP in cleavage media
[3] = Example 10, 1.7 mM CaCl2 or ACC-PP in cleavage media
[4] = Example 11, 1.7 mM in cleavage media
[5] = Example 12, mouse 1, embryos grown separately, 1.7 mM in cleavage media
[6] = Example 12, mouse 2, embryos grown separately, 1.7 mM in cleavage media
[7] = Example 12, mouse 3, embryos grown separately, 1.7 mM in cleavage media
[8] = Example 12, mouse 4, embryos grown separately, 1.7 mM in cleavage media
[9] = Example 16, pooled embryos, 1.7 mM in cleavage media

Question: What does the source list for `[Ca+2].[Cl-].[Cl-]` [CaCl2, calcium chloride]?
Answer: Blast/d3: number of embryos (mice embryos; [1]): 16; Blast/d3: portion of the initial number of embryos (mice embryos; [1]): 64%; Comp/d2: portion of the initial number of embryos (mice embryos; [1]): 64%; comp/d2: number of embryos (mice embryos; [1]): 16; Blast/d3: number of embryos (mice embryos; [2]): 20; Blast/d3: portion of the initial number of embryos (mice embryos; [2]): 74%; Comp/d2: portion of the initial number of embryos (mice embryos; [2]): 70%; Hatch/d4: number of embryos (mice embryos; [2]): 11; Hatch/d4: portion of the initial number of embryos (mice embryos; [2]): 40.7%; comp/d2: number of embryos (mice embryos; [2]): 20; Blast/d3: number of embryos (mice embryos; [3]): 8; Blast/d3: portion of the initial number of embryos (mice embryos; [3]): 80%; Comp/d2: portion of the initial number of embryos (mice embryos; [3]): 30%; Hatch/d4: number of embryos (mice embryos; [3]): 3; Hatch/d4: portion of the initial number of embryos (mice embryos; [3]): 30%; comp/d2: number of embryos (mice embryos; [3]): 3; Blast/d3: number of embryos (mice embryos; [4]): 24; Blast/d3: portion of the initial number of embryos (mice embryos; [4]): 80%; Comp/d2: portion of the initial number of embryos (mice embryos; [4]): 53.3%; Hatch/d4: number of embryos (mice embryos; [4]): 13; Hatch/d4: portion of the initial number of embryos (mice embryos; [4]): 43.3%; comp/d2: number of embryos (mice embryos; [4]): 16; 2Cell/d1: number of embryos (mice embryos; [5]): 3; 8Cell/d2: number of embryos (mice embryos; [5]): 2; Blast/d3: number of embryos (mice embryos; [5]): 1; Blast/d3: portion of the initial number of embryos (mice embryos; [5]): 8.3%; Hatch/d4: number of embryos (mice embryos; [5]): 0 (0); Hatch/d4: portion of the initial number of embryos (mice embryos; [5]): 0 (0) %; comp/d2: number of embryos (mice embryos; [5]): 1; irreg/d1: number of embryos (mice embryos; [5]): 9; 2Cell/d1: number of embryos (mice embryos; [6]): 3; 8Cell/d2: number of embryos (mice embryos; [6]): 0; Blast/d3: number of embryos (mice embryos; [6]): 2; Blast/d3: portion of the initial number of embryos (mice embryos; [6]): 22.2%; Hatch/d4: number of embryos (mice embryos; [6]): 0 (0); Hatch/d4: portion of the initial number of embryos (mice embryos; [6]): 0 (0) %; comp/d2: number of embryos (mice embryos; [6]): 3; irreg/d1: number of embryos (mice embryos; [6]): 6; 2Cell/d1: number of embryos (mice embryos; [7]): 7; 8Cell/d2: number of embryos (mice embryos; [7]): 0; Blast/d3: number of embryos (mice embryos; [7]): 5; Blast/d3: portion of the initial number of embryos (mice embryos; [7]): 50%; Hatch/d4: number of embryos (mice embryos; [7]): 3; Hatch/d4: portion of the initial number of embryos (mice embryos; [7]): 30%; comp/d2: number of embryos (mice embryos; [7]): 6; irreg/d1: number of embryos (mice embryos; [7]): 3; 2Cell/d1: number of embryos (mice embryos; [8]): 14; 8Cell/d2: number of embryos (mice embryos; [8]): 4; Blast/d3: number of embryos (mice embryos; [8]): 12; Blast/d3: portion of the initial number of embryos (mice embryos; [8]): 66.7%; Hatch/d4: number of embryos (mice embryos; [8]): 7; Hatch/d4: portion of the initial number of embryos (mice embryos; [8]): 41.2%; comp/d2: number of embryos (mice embryos; [8]): 10; irreg/d1: number of embryos (mice embryos; [8]): 4; effect on embryonic development (percentages of blastocysts and hatched blastocysts) (mice embryos; Example 16, 1.7 mM in cleavage media): negative effect; 8 cell/d2: number of embryos (mice embryos; [9]): 6; Blast/d3: number of embryos (mice embryos; [9]): 10; Blast/d3: portion of the initial number of embryos (mice embryos; [9]): 90.90%; Hatch/d4: number of embryos (mice embryos; [9]): 4; Hatch/d4: portion of the initial number of embryos (mice embryos; [9]): 36.36%; comp/d2: number of embryos (mice embryos; [9]): 5; muscle contractions observed, day after seeding (mdx cell line): ≥ 10 days
